# Measured values published in US20070203749A1 (priority 2005, published 2007).
# Like-named read-outs stand apart in the source and are kept apart here.
# B1: TRAIL: tumor necrosis factor-related apoptosis inducing ligand, member of the TNF superfamily that induces apoptosis through death receptors (protein, UniProt P50591 1-281, looked up)
# Tumor necrosis factor ligand …: MAMMEVQGGPSLGQTCVLIVIFTVLLQSLCVAVTYVYFTNELKQMQDKYSKSGIACFLKEDDSYWDPNDEESMNSPCWQVKWQLRQLVRKMILRTSEETISTVQEKQQNISPLVRERGPQRVAAHITGTRGRSNTLSSPNSKNEKALGRKINSWESSRSGHSFLSNLHLRNGELVIHEKGFYYIYSQTYFRFQEEIKENTKNDKQMVQYIYKYTSYPDPILLMKSARNSCWSKDAEYGLYSIYQGGIFELKENDRIFVSVTNEHLIDMDHEASFFGAFLVG
# Tests used:
# cIAP-1-Bir3 = cIAP-1-Bir3 (Homo sapiens, UniProt Q13490); experiment: Fluorescence polarization binding assay, purified cIAP-1 BIR-3 domain; settings: for Kd: BIR-3 domain; for binding to cIAP-1 and cIAP-2 relative to XIAP (fold more tightly): ratio of binding constants vs XIAP
# Procedure: (§1) Binding constants were measured using fluorescence polarization as described in Zancta Nikolovska-Coleska et al., (2004) Analytical biochemistry, 332, 261-273. Briefly, various known concentrations of each test peptide were mixed with 5 nM fluorescently labeled peptide (AbuRPF-K(5-Fam)—NH2; FP peptide) and 40 nM of XIAP-Bir3, cIAP-1-Bir3 or cIAP-2-Bir3 in 100 μl of 0.1M Potassium Phosphate buffer, pH 7.5 containing 100 μg/ml bovine γ-globulin. These mixtures were incubated for 15 min at room temperature (approximately 22° C.). Following incubation, the polarization values (mP) were measured on a Victor^2V using a 485 nm excitation filter and a 535 nm emission filter. Kj(app) values were determined from the plot using nonlinear least-squares analysis using GraphPad Prism (Table 8).
# (§2) In any event, binding to cIAP-1 and cIAP-2 or other IAPs can be determined using standard binding affinity assays, as illustrated above. […] We have utilized the specificity of this IAP binding motif in a fluorescence polarization assay to measure the binding affinities for cIAP-1 and cIAP-2 Antagonists. The fluorescence polarization assay consists of FP peptide, and the recombinant BIR3 domain of the XIAP protein. The FP peptide and mimics of the […] compete for binding to the BIR3 protein. […] If a peptide, peptidomimetic, or other small molecule being tested is a competitor, then it succeeds in displacing the FP peptide, resulting in a low mP value. Molecules that compete with the FP l peptide can be titrated and IC50 values determined (GraphPad Prism nonlinear regression curve-fitting program) by plotting mp values as the direct measure of fraction bound vs, the log of the compound concentration.
# SK-OV-3 cells = experiment: MTT assay, growth inhibition of ovarian cancer cell line SK-OV-3; assay type: cell-based; settings: Homo sapiens; for CC50: SK-OV-3 cells, 72 hrs, concentration giving 50% cell survival, Table 8; for EC50: SK-OV-3, SKOV-3 cells, Table 10
# Procedure: The MTT assay was described in Hansen, M. B., Nielson, S. E., and Berg, K. (1989) J. Immunol Methods 119, 203-210 and incorporated herein by reference in its entirety. Briefly, SK-OV-3 cells were seeded in 96-well plates in McCoy's medium containing 10% fetal bovine serum albumin (10,000 per well) and incubated overnight at 37° C. […] This incubation time was optimal for measuring inhibitory effects of different analogs. 50 microliters of 5 mg/mL MTT reagent was added to each well, and the plates were incubated at 37° C. for 3 hours. At the end of the incubation period, 50 microliters of DMSO was added to each well to dissolve cells, and the optical density (OD) of the wells was measured with a microplate reader (Victor^2 1420, Wallac, Finland) at 535 nm. Cell survival (CS) was calculated using the following equation: CS=(OD treated well/mean OD control wells)×100%
# The EC50 (Table 1). defined as the drug concentration that results in 50% CS, was derived by calculating the point where the dose-response curve crosses the 50% CS point using GraphPad Prism.
# cIAP-2-Bir3 = cIAP-2-Bir3 (Homo sapiens, UniProt Q13489); experiment: Fluorescence polarization binding assay, purified cIAP-2 BIR-3 domain
# Procedure: as §1, §2
# XIAP-Bir3 = XIAP-Bir3 (Homo sapiens, UniProt P98170); experiment: Fluorescence polarization binding assay, purified XIAP BIR-3 domain
# Procedure: as §1, §2
# OVCAR-3 cells = experiment: Synergistic toxicity with SN-38 (topoisomerase I inhibitor); assay type: cell-based; settings: compared between Compounds N and H
# XIAP = target: T1, XIAP (Homo sapiens, UniProt P98170); experiment: Effect of proteasome inhibitor on IAP degradation, western blot, XIAP; assay type: cell-based; settings: SK-OV-3 cells, 20 hrs, absence of bortezomib
# T1 construct: endogenous in cells; host or cells: SK-OV-3
# Procedure: (§3) Cells were harvested after trypsinization by centrifuging at 2000 rpm for 10 min. The cell pellet was washed with PBS and lysed with RIPA to disrupt the cell membrane. The lysate after centrifugation was loaded onto a 5-20% polyacrylamide gel to separate the proteins. A Western blot was carried out using standard techniques and probed for XIAP and cIAP-1 proteins as described above.
# (§4) Similarly, IAP degradation assays can be carried out by well known techniques, as illustrated above. […] Ubiquitinated protein is then escorted to the 26S proteasome where it undergoes final degradation and the ubiquitin is released and recycled. Once cIAP-1 Antagonists bind to cIAP-1, it results in perturbation of cell survival complexes or dissociation of natural ligands, signaling IAPs to either self ubiquinate or become targets for ubiquitination followed by proteasomal degradation. […] To further elucidate the machinery involved with this phenomenon, we focused on the regulation of IAP stability and asked whether or not the proteasome was involved in the degradation of cIAP-1 and XIAP.
# cIAP-1 = target: T2, cIAP-1 (Homo sapiens, UniProt Q13490); experiment: Effect of proteasome inhibitor on IAP degradation, western blot, cIAP-1; assay type: cell-based; settings: SK-OV-3 cells, 20 hrs, absence of bortezomib
# T2 construct: endogenous in cells; host or cells: SK-OV-3
# Procedure: as §3, §4
# SK-OV-3^R cells = experiment: MTT assay on IAP Antagonist-resistant SK-OV-3^R cells; assay type: cell-based; settings: SK-OV-3^R cells (IAP Antagonist-resistant)
# Procedure: (§5) Another unexpected observation we made was with respect to TRAIL sensitivity. IAP Antagonist-resistant […] cells (SK-OV-3^R) were generated by exposing the parental SK-OV-3 cells ([…]) to an IAP antagonist compound at a concentration that kills 95% of cells. Three days later, viable cells were transferred to a fresh flask and grown to confluency. Two weeks later, the cells were tested for IAP Antagonist sensitivity in an MTT assay as describe above and as expected, found these cells to be resistant to IAP Antagonist cytotoxicity.
# SK-OV-3^S cells = experiment: MTT assay, TRAIL sensitivity of parental SK-OV-3^S cells; assay type: cell-based; settings: SK-OV-3^S cells (parental)
# Procedure: as §5
# [1] = fluorescence polarization, Table 8, read-out: cIAP-1, Kd(3pp)
# [2] = fluorescence polarization, Table 8, read-out: cIAP-2, Kd(apβ)
# [3] = fluorescence polarization, Table 8, read-out: XIAP, Kβ(spp)
# [4] = Table 10, read-out: Kd(App), c-IAP-1
# [5] = Table 10, read-out: Kd(App), cIAP-2
# [6] = Table 10, read-out: Kd(App), XIAP
# XIAP-Bir3, sequence (P98170 241-356 limits assumed): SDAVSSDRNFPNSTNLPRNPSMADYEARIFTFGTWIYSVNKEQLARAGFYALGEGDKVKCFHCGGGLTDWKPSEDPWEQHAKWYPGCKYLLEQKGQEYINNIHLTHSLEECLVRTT
# cIAP-2-Bir3, sequence (Q13489 238-349 limits assumed): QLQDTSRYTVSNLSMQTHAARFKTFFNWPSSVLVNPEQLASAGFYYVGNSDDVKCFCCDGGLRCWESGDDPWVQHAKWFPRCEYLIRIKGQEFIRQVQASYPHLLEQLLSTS
# cIAP-1-Bir3, sequence (Q13490 253-363 limits assumed): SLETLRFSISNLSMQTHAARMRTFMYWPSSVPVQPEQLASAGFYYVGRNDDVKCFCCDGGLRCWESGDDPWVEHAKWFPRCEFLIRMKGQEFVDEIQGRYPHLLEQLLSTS
# T1 sequence (P98170 whole entry): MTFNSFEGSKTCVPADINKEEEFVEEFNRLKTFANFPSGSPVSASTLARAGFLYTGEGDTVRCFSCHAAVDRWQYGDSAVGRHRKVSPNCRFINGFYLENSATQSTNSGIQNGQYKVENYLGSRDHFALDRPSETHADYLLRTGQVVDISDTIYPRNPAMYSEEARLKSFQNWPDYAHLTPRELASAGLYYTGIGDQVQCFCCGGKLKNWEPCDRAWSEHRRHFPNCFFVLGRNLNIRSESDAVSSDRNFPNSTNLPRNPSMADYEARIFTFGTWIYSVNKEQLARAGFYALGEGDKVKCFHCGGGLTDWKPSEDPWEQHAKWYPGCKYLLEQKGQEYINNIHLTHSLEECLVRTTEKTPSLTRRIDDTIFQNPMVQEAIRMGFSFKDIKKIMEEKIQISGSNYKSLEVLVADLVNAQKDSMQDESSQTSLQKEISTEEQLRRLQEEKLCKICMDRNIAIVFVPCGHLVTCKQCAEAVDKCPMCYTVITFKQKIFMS
# T2 sequence (Q13490 whole entry): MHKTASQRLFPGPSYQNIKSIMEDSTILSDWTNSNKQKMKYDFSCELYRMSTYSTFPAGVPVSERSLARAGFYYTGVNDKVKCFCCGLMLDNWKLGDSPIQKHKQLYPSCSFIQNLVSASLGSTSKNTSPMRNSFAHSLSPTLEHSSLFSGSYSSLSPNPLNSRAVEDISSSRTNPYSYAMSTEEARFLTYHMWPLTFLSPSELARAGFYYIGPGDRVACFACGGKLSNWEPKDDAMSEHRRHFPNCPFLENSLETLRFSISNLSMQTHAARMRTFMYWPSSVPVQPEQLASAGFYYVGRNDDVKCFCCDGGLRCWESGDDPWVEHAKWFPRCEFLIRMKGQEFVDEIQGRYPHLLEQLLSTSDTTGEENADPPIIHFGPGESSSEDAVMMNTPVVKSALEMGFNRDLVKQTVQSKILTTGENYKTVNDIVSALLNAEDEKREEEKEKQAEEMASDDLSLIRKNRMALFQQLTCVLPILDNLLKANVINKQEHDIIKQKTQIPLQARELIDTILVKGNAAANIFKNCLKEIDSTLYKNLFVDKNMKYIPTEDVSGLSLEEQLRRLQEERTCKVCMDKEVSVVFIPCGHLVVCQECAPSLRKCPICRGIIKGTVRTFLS
Molecule,Kd (cIAP-1-Bir3; [1]) [nM],CC50 (SK-OV-3 cells) [µM],Kd (cIAP-2-Bir3; [2]) [nM],Kd (XIAP-Bir3; [3]) [nM],further results
CCC(C)[C@H](NC(=O)[C@H](C)NC)C(=O)N1CCC[C@H]1Cc1c2n(c3ccc(F)cc13)CCn1c-2c(C[C@@H]2CCCN2C(=O)[C@@H](NC(=O)[C@H](C)NC)C(C)CC)c2cc(F)ccc21 (some centres unmarked) [A],0.5,0.0002,14,10,
CNC(C)C(=O)NC(C(=O)N1CC(OC(C)=O)CC1Cc1c[nH]c2ccccc12)C(C)C (centres unmarked) [Compound H],,0.007,,120,"Kd (cIAP-1-Bir3; [4]): 1 nM; binding to cIAP-1 and cIAP-2 relative to XIAP (fold more tightly) (cIAP-1-Bir3): 117 fold; EC50 (SK-OV-3 cells): 7 nM; Kd (cIAP-2-Bir3; [5]): 46 nM; synergistic toxicity with SN-38, synergistic volume (OVCAR-3 cells): comparable; Kd (XIAP-Bir3; [6]): 117 nM"
CNC(C)C(=O)NC(C(=O)N1CCCC1Cc1c[nH]c2ccc(C)cc12)C(C)O (centres unmarked) [Compound K],8,0.002,6,310,
CC(C)C(NC(=O)CN)C(=O)N1CC(Oc2ccccc2)CC1Cc1coc2ccccc12 (centres unmarked) [D],17,0.043,33,160,
CNC(C)C(=O)NC(C(=O)N1CCCC1Cc1c(-c2ccc(C(=O)OC)cc2)n(CCOCCOCCOC)c2cc(F)ccc12)C(C)(C)C (centres unmarked) [E],16,0.046,8,90,
CNC(C)C(=O)NC(C(=O)N1CCCC1Cc1c(-c2ccc(F)cc2)n(CCOCCOCCOC)c2cc(F)ccc12)C(C)(C)C (centres unmarked) [F],26,0.079,120,820,
CNC(C)C(=O)NC(C(=O)N1CCCC1Cc1c(-c2ccc(N3CCOCC3)cc2)n(CCOCCOCCOC)c2cc(F)ccc12)C(C)(C)C (centres unmarked) [G],130,0.28,180,400,
CNC(C)C(=O)NC(C(=O)N1CC(OC(C)=O)CC1Cc1c[nH]c2ccccc12)C(C)(C)C (centres unmarked) [I],72,0.004,50,200,
CNC(C)C(=O)NC(C(=O)N1CC(OC(C)=O)CC1Cc1c[nH]c2ccccc12)C(C)O (centres unmarked) [J],53,0.008,26,460,
CNC(C)C(=O)NC(C(=O)N1CC(O)CC1Cc1c(-c2ccc(-c3[nH]c4ccccc4c3CC3CC(O)CN3C(=O)C(NC(=O)C(C)NC)C(C)(C)C)cc2)[nH]c2ccccc12)C(C)(C)C (centres unmarked) [N],,,,,"Kd (cIAP-1-Bir3; [4]): 1 nM; binding to cIAP-1 and cIAP-2 relative to XIAP (fold more tightly) (cIAP-1-Bir3): comparable affinity; EC50 (SK-OV-3 cells): 7 nM; Kd (cIAP-2-Bir3; [5]): 6 nM; synergistic toxicity with SN-38, synergistic volume (OVCAR-3 cells): comparable; Kd (XIAP-Bir3; [6]): 1 nM"
CN[C@@H](C)C(=O)N[C@H](C(=O)N1CCC[C@H]1Cc1c(-c2ccc(-c3c(C[C@@H]4CCCN4C(=O)[C@@H](NC(=O)[C@H](C)NC)C(C)(C)C)c4ccc(F)cc4n3CCO)cc2)n(CCO)c2cc(F)ccc12)C(C)(C)C [Q],,,,,XIAP protein level by western blot (XIAP): complete disappearance; cIAP-1 protein level by western blot (cIAP-1): complete disappearance
B1,,,,,TRAIL sensitivity in MTT assay (SK-OV-3^R cells): sensitive to TRAIL; TRAIL sensitivity in MTT assay (SK-OV-3^S cells): resistant to TRAIL
